Experimental data published in the NIST ThermoML archive (doi:10.1016/j.jct.2013.07.008).
Numbers after ± are expanded uncertainties.

Experiments:
[1] = refractive index (Na D-line) (dimensionless); wn = mass fraction of the nth substance listed; settings: 101 kPa, Liquid, Standard Abbe refractometry
[2] = wn = mass fraction of the nth substance listed; settings: for surface tension liquid-gas: Maximal bubble pressure; for mass density: 101 kPa, Liquid, Buoyancy - hydrostatic balance

CC(O)C(=O)[O-].CCn1cc[n+](C)c1 [1-ethyl-3-methylimidazolium lactate] + O
Settings | mass density [kg/m3] | refractive index | surface tension liquid-gas [mN/m]
[1], 288.15 K, w2 = 0.0082 | – | 1.5019 ± 0.0005 | –
[1], 288.15 K, w2 = 0.0104 | – | 1.5017 ± 0.0005 | –
[1], 288.15 K, w2 = 0.0121 | – | 1.5016 ± 0.0005 | –
[1], 288.15 K, w2 = 0.0158 | – | 1.5013 ± 0.0005 | –
[1], 288.15 K, w2 = 0.0205 | – | 1.5009 ± 0.0005 | –
[1], 293.15 K, w2 = 0.0082 | – | 1.5006 ± 0.0005 | –
[1], 293.15 K, w2 = 0.0104 | – | 1.5004 ± 0.0005 | –
[1], 293.15 K, w2 = 0.0121 | – | 1.5002 ± 0.0005 | –
[1], 293.15 K, w2 = 0.0158 | – | 1.4999 ± 0.0005 | –
[1], 293.15 K, w2 = 0.0205 | – | 1.4994 ± 0.0005 | –
[1], 303.15 K, w2 = 0.0082 | – | 1.498 ± 0.0005 | –
[1], 303.15 K, w2 = 0.0104 | – | 1.4978 ± 0.0005 | –
[1], 303.15 K, w2 = 0.0121 | – | 1.4977 ± 0.0005 | –
[1], 303.15 K, w2 = 0.0158 | – | 1.4974 ± 0.0005 | –
[1], 303.15 K, w2 = 0.0205 | – | 1.497 ± 0.0005 | –
[1], 308.15 K, w2 = 0.0082 | – | 1.4969 ± 0.0005 | –
[1], 308.15 K, w2 = 0.0104 | – | 1.4967 ± 0.0005 | –
[1], 308.15 K, w2 = 0.0121 | – | 1.4965 ± 0.0005 | –
[1], 308.15 K, w2 = 0.0158 | – | 1.4962 ± 0.0005 | –
[1], 308.15 K, w2 = 0.0205 | – | 1.4957 ± 0.0005 | –
[1], 313.15 K, w2 = 0.0082 | – | 1.4955 ± 0.0005 | –
[1], 313.15 K, w2 = 0.0104 | – | 1.4953 ± 0.0005 | –
[1], 313.15 K, w2 = 0.0121 | – | 1.4952 ± 0.0005 | –
[1], 313.15 K, w2 = 0.0158 | – | 1.4949 ± 0.0005 | –
[1], 313.15 K, w2 = 0.0205 | – | 1.4946 ± 0.0005 | –
[1], 318.15 K, w2 = 0.0082 | – | 1.4943 ± 0.0005 | –
[1], 318.15 K, w2 = 0.0104 | – | 1.4941 ± 0.0005 | –
[1], 318.15 K, w2 = 0.0121 | – | 1.494 ± 0.0005 | –
[1], 318.15 K, w2 = 0.0158 | – | 1.4937 ± 0.0005 | –
[1], 318.15 K, w2 = 0.0205 | – | 1.4933 ± 0.0005 | –
[1], 323.15 K, w2 = 0.0082 | – | 1.4931 ± 0.0005 | –
[1], 323.15 K, w2 = 0.0104 | – | 1.493 ± 0.0005 | –
[1], 323.15 K, w2 = 0.0121 | – | 1.4929 ± 0.0005 | –
[1], 323.15 K, w2 = 0.0158 | – | 1.4927 ± 0.0005 | –
[1], 323.15 K, w2 = 0.0205 | – | 1.4924 ± 0.0005 | –
[1], 328.15 K, w2 = 0.0082 | – | 1.4919 ± 0.0005 | –
[1], 328.15 K, w2 = 0.0104 | – | 1.4917 ± 0.0005 | –
[1], 328.15 K, w2 = 0.0121 | – | 1.4915 ± 0.0005 | –
[1], 328.15 K, w2 = 0.0158 | – | 1.4912 ± 0.0005 | –
[1], 328.15 K, w2 = 0.0205 | – | 1.4908 ± 0.0005 | –
[1], 333.15 K, w2 = 0.0082 | – | 1.4906 ± 0.0005 | –
[1], 333.15 K, w2 = 0.0104 | – | 1.4904 ± 0.0005 | –
[1], 333.15 K, w2 = 0.0121 | – | 1.4903 ± 0.0005 | –
[1], 333.15 K, w2 = 0.0158 | – | 1.49 ± 0.0005 | –
[1], 333.15 K, w2 = 0.0205 | – | 1.4896 ± 0.0005 | –
[2], 288.15 K, w2 = 0.0082 | 1197.3 ± 1.1 | – | 50.1 ± 0.6
[2], 288.15 K, w2 = 0.0104 | 1198.4 ± 1.1 | – | 50.3 ± 0.6
[2], 288.15 K, w2 = 0.0121 | 1199.4 ± 1.1 | – | 50.4 ± 0.6
[2], 288.15 K, w2 = 0.0158 | 1201.3 ± 1.1 | – | 50.7 ± 0.6
[2], 288.15 K, w2 = 0.0205 | 1203.8 ± 1.1 | – | 51 ± 0.6
[2], 293.15 K, w2 = 0.0082 | 1194.1 ± 1.1 | – | 49.8 ± 0.6
[2], 293.15 K, w2 = 0.0104 | 1195.2 ± 1.1 | – | 50 ± 0.6
[2], 293.15 K, w2 = 0.0121 | 1196.1 ± 1.1 | – | 50.1 ± 0.6
[2], 293.15 K, w2 = 0.0158 | 1198.1 ± 1.1 | – | 50.4 ± 0.6
[2], 293.15 K, w2 = 0.0205 | 1200.5 ± 1.1 | – | 50.7 ± 0.6
[2], 303.15 K, w2 = 0.0082 | – | – | 49.1 ± 0.6
[2], 303.15 K, w2 = 0.0104 | – | – | 49.3 ± 0.6
